According to ChEMBL document CHEMBL1201862, “PubChem BioAssay data set” (2004):
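Test compounds were applied to cells in 96-well plates for 48 hours at 5 doses. Here, GI50 denotes the concentration required for 50% inhibition of growth.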 Activity calls are given as the source filed them. No stated cut-off is given here; in the data, active = GI50 up to about 1.1 µM and inactive = higher.

Key:
Test in all cases: NCI-60 cell line screen, 48 h
[1] = system: NCI-H226
[2] = system: PC-3
[3] = system: SNB-19
[4] = system: K562
[5] = system: CCRF-CEM
[6] = system: EKVX
[7] = system: HOP-62
[8] = system: OVCAR-8
[9] = system: HCC 2998
[10] = system: Malme-3M
[11] = system: SF-268
[12] = system: NCI-H522
[13] = system: BT-549
[14] = system: OVCAR-4
[15] = system: SK-MEL-2
[16] = system: COLO 205
[17] = system: LOX IMVI
[18] = system: MDA-N
[19] = system: HCT-116
[20] = system: MCF7

Row | Compound | GI50 [1] | GI50 [2] | GI50 [3] | GI50 [4] | GI50 [5] | GI50 [6] | GI50 [7] | GI50 [8] | GI50 [9] | GI50 [10] | GI50 [11] | GI50 [12] | GI50 [13] | GI50 [14] | GI50 [15] | GI50 [16] | GI50 [17] | GI50 [18] | GI50 [19] | GI50 [20]
1 | CC(C)(C)c1cc(C(=O)/C=C/c2ccc3c(c2)OCO3)cc(C(C)(C)C)c1O | 15.2 µM (inactive) | 3.99 µM (inactive) | 13.3 µM (inactive) | 5.24 µM (inactive) | 3.48 µM (inactive) | 21.9 µM (inactive) | 19.4 µM (inactive) | 13.6 µM (inactive) | 1.75 µM (inactive) | 32.4 µM (inactive) | 8.79 µM (inactive) | 11.9 µM (inactive) | 6.3 µM (inactive) | 6.95 µM (inactive) | 3.26 µM (inactive) | 5.61 µM (inactive) | 8.32 µM (inactive) | 1.98 µM (inactive) | 4.51 µM (inactive) | 5.28 µM (inactive)
2 | COc1ccc(-c2cc(=O)c3c(O)c(OC)c(OC)c(OC)c3o2)cc1 [GARDENIN B] | > 100 µM (inactive) | 30 µM (inactive) | 25.4 µM (inactive) | 0.498 µM (active) | > 100 µM (inactive) | > 100 µM (inactive) | 24.5 µM (inactive) | > 100 µM (inactive) | 1.71 µM (inactive) | > 28.6 µM (inactive) | > 68.4 µM (inactive) | 6.58 µM (inactive) | 16.2 µM (inactive) | > 100 µM (inactive) | 12.8 µM (inactive) | 7.83 µM (inactive) | 17.6 µM (inactive) | 0.433 µM (active) | 13.4 µM (inactive) | 4.86 µM (inactive)
3 | Cn1c(N2CCCC2)c(C=O)c(=O)n(C)c1=O | 51.8 µM (inactive) | > 100 µM (inactive) | > 100 µM (inactive) | > 100 µM (inactive) | > 100 µM (inactive) | > 100 µM (inactive) | > 100 µM (inactive) | > 100 µM (inactive) | > 100 µM (inactive) | 78.5 µM (inactive) | 96.8 µM (inactive) | > 100 µM (inactive) | > 100 µM (inactive) | > 100 µM (inactive) | > 100 µM (inactive) | > 100 µM (inactive) | > 100 µM (inactive) | > 100 µM (inactive) | > 100 µM (inactive) | > 100 µM (inactive)
4 | O=Cc1ccc(-c2nccc3c2[nH]c2ccccc23)o1 | 1.31 µM (inactive) | 98.2 µM (inactive) | > 100 µM (inactive) | > 100 µM (inactive) | > 100 µM (inactive) | > 100 µM (inactive) | 42.8 µM (inactive) | > 87.1 µM (inactive) | > 91.6 µM (inactive) | > 100 µM (inactive) | > 100 µM (inactive) | 64.4 µM (inactive) | > 100 µM (inactive) | 89.5 µM (inactive) | > 95.5 µM (inactive) | > 100 µM (inactive) | > 56.2 µM (inactive) | > 100 µM (inactive) | 55.7 µM (inactive) | 55 µM (inactive)
5 | CC(=O)OC/C=C(\C)CCC(Br)C(C)(C)Br (stereo not given) | > 10 µM (inactive) | > 10 µM (inactive) | > 10 µM (inactive) | > 10 µM (inactive) | > 10 µM (inactive) | > 10 µM (inactive) | > 10 µM (inactive) | > 10 µM (inactive) | > 10 µM (inactive) | > 10 µM (inactive) | > 10 µM (inactive) | > 10 µM (inactive) | > 10 µM (inactive) | > 10 µM (inactive) | > 10 µM (inactive) | > 10 µM (inactive) | > 10 µM (inactive) | > 10 µM (inactive) | > 10 µM (inactive) | > 10 µM (inactive)
